Data taken from patent publication USRE38132E1, “Phenylpyrrolidines, phenylimidazolidines,3-phenyl-1,3-oxizolidines and 3-phenyl-1,3-thiazolidines and their use in the treatment of inflammatory disease” (Boehringer Ingelheim Pharmaceuticals, Inc., priority 1997, dated 2003).
Like-named read-outs stand apart in the source and are kept apart here.

Tests used:
[1] = biological target: T1, interaction of ICAM-1 with the Leukointegrin CD18/CD11a (LFA-1) (Homo sapiens, UniProt P05107+P20701); assay: Assay to determine inhibition of LFA-1 binding to ICAM-1 (immunopurified LFA-1 on plate-bound sICAM-1, ELISA readout)
T1 construct: endogenous in cells; sICAM-1: made in house, secreted from transfected CHO DUX cells

[2] = tested on: cell bound form of LFA-1 (CD18, CD11a) with ICAM-1, SKW3 cells; assay: Inhibition of SKW3 cell binding to ICAM-1 (PMA-stimulated); format: cell-based, human; settings: Homo sapiens, read-out: Assay to Detect SKW3 Cells Binding to ICAM IC50
From the text: (§1) Assay to Determine Inhibition of SKW3 cell binding to ICAM-1 vs. Binding to Fibronectin
(§2) This assay is used to test the selective ability of a test compound to antagonize the interaction of a cell bound form of LFA-1 with ICAM-1. The assay uses a human T cell line, SKW3 cells which express CD18, CD11a and other integrins not related to CD18, CD11a and which can be “activated” by phorbol esters. Phorbol esters enhance the affinity of CD18, CD11a for ICAM-1.
(§3) This same lymphocyte line, SKW3, also adheres to fibronectin in the presence of phorbol esters. This adhesion is mediated by membrane proteins independent of the LFA-1/ICAM-1 interaction. The SKW3 cells express another integrin, VLA4, which is the receptor for fibronectin. Therefore, as a preliminary indication of the selectivity of a test compounds to interfere with Leukointegrin/CAM interactions but not other integrin-ligand binding events, a compound can be tested for its ability to antagonize cell bound fibronectin receptor in its interaction with purified fibronectin. Compounds that inhibit this fibronectin adhesion are not specific antagonists of the CD18, CD11a/ICAM-1 binding.
(§4) Description of Assay Protocol:
(§5) Ninety-six well plates are coated with either sICAM-1(40 μg/mL) or fibronectin (100 μg/mL) in Diluting buffer for 1 h at room temperature. Added to the wells are 100 μL of the appropriately diluted test compound or 100 μL of RPMI with 15% fetal bovine serum as a control. SKW3 cells, which express CD18, CD11a and VLA4 (Dustin, M.; et al., J. Exp. Med. 1987, 165, 672-692) are washed and suspended to a concentration of 10^6 cells/mL in RPMI with 15% fetal bovine serum. Immediately before adding the cells to the wells, cells are stimulated with the phorbol ester 12-myristate 13-acetate (PMA) for a final concentration of […]. 100 μL of cells are then added to the wells resulting in a final concentration of […]. The plates are incubated for 2 h at 37° C. Unbound or loosely bound cells are gently washed away with RPMI.
(§6) Data are reported as the concentration or concentration range (in μM) at which 50% of binding is inhibited.

[3] = tested on: cell bound fibronectin receptor (VLA4) with fibronectin, SKW3 cells; assay: Inhibition of SKW3 cell binding to fibronectin (selectivity counter-assay); format: cell-based, human; settings: for IC50: Homo sapiens, SKW3, values marked c: no inhibition observed up to highest dose, read-out: Assay to Detect SKW3 Cells Binding to FIBRONECTIN IC50
From the text: as §1, §2, §3, §4, §5, §6

[4] = tested on: LFA-1 dependent aggregation of JY cells; assay: JY cell homotypic aggregation assay (PMA-stimulated); format: cell-based, human; settings: Homo sapiens
From the text: This aggregation can be enhanced by the addition of phorbol esters. […] Thus, the extent of LFA-1-dependent binding may be determined by assessing the extent of spontaneous or phorbol ester-dependent aggregate formation.
An agent which interferes with LFA-1 -dependent aggregation can be identified through the use of an assay capable of determining whether the agent interferes with either spontaneous, or phorbol ester-dependent aggregation of Epstein-Barr virus transformed cells. It is preferable to employ cells of the JY cell line (Terhost, L; et aL, Proc. Natl. Acad. Sci. USA, 1976, 73, 910) for the homotypic aggregation assay. This assay, capable of measuring LFA-1 dependent aggregation, may be employed to identify agents which act as antagonists to the LFA-1 dependent aggregation. Such agents may act by impairing the ability of either LFA-1 or ICAM-1 to mediate aggregation. Thus, agents may be examined to directly determine if they are antagonists of LFA-1 aggregation.
as §4
JY cells are cultured in RPMI 1640 culture medium supplemented with 10% fetal calf serum and 50 μg/mL gentamycin. The cells are cultured at 37° C. in an atmosphere of 5% CO2 at a relative humidity of 95%. JY cells used in this assay are washed two times with RPMI 1640 medium containing 5 mM HEPES buffer and resuspended to a concentration of 2·10^6 cells/mL. Added to flat-bottomed, 96-well microtiter plates are 50 μL of test compound diluted in complete medium, 50 μL of complete medium with or without purified monoclonal antibodies (negative and positive controls for inhibition, respectively), 50 μL of complete medium containing 200 ng/mL of the phorbol ester phorbol myristate acetate (PMA) and 100 μL of cells at a concentration of 2·10^6 cells/mL in complete medium. This yields a final concentration of […] PMA and 2·10^5 cells/well. Cells are allowed to settle spontaneously, and the degree of aggregation is scored at various time points. […] This procedure has been described by Rothlein, R. R.; et al., J. Exp. Med. 1986, 163, 1132-1149. This paper also reported that antibody to LFA-1 is capable of inhibiting the formation of aggregates.
as §6

[5] = values marked e approximated from incomplete dose-response curve
[6] = SKW3, values marked c: no inhibition observed up to highest dose
[7] = values marked c: no inhibition observed up to highest dose
[8] = No inh = no inhibition observed up to highest dose, exact quantification not always possible due to intrinsic toxicity

T1 sequence (P20701 26-1170): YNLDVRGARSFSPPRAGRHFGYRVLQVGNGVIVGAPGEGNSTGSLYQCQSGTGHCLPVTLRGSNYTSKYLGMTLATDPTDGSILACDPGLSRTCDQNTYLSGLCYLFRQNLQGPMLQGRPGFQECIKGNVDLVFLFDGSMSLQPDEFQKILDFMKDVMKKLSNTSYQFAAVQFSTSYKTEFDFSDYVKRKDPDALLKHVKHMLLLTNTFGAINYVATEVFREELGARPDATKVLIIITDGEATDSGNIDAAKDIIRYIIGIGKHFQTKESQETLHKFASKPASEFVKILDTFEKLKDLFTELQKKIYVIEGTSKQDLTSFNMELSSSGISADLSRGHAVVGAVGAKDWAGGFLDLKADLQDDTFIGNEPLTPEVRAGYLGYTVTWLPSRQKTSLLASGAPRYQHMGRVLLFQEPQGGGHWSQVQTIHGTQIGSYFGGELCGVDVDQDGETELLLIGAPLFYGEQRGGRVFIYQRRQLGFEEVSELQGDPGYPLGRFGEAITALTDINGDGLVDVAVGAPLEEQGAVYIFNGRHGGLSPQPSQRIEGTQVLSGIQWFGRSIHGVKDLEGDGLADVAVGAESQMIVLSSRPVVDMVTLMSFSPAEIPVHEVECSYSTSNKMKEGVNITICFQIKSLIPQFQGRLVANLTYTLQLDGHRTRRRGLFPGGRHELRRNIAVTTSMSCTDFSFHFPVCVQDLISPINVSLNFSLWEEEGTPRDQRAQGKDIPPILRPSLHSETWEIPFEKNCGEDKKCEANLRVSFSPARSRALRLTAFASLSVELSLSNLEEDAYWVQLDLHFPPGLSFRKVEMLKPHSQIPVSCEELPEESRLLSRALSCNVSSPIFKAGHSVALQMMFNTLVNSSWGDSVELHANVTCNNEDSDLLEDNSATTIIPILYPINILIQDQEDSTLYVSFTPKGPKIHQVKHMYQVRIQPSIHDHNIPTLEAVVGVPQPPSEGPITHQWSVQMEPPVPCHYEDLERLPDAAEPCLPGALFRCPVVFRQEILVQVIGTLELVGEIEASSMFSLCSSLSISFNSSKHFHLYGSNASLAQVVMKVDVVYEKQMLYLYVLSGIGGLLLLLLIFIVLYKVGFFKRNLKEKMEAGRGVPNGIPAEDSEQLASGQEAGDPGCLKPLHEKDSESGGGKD
T1 sequence (P05107 23-769): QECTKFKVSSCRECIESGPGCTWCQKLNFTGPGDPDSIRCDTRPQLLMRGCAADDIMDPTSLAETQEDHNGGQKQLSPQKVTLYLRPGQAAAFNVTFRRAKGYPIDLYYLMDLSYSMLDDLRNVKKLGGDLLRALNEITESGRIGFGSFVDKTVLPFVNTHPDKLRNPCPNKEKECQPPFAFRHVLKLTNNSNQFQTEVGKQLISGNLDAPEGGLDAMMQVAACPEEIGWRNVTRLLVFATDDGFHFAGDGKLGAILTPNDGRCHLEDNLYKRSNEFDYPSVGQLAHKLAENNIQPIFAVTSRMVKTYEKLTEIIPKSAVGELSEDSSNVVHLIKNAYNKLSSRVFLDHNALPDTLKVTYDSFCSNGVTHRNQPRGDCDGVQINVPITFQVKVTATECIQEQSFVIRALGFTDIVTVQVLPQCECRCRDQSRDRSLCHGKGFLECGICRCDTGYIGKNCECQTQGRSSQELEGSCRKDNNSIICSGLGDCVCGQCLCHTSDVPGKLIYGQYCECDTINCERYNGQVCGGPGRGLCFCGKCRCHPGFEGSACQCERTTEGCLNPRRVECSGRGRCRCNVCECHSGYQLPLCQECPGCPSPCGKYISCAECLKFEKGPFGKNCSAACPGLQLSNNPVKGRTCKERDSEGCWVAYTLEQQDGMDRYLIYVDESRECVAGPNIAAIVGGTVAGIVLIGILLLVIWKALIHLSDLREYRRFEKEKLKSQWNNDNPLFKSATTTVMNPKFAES

| Compound | Kd [1, 5] | IC50 [2, 6] | Assay to Detect SKW3 Cells Binding to FIBRONECTIN IC50 [3, 7] | IC50 [4] | Cellular Toxicity Assay MTT LD50 (SKW3 cells) | IC50 [3] | IC50 ([2]; SKW3) | Assay to Detect SKW3 Cells Binding to FIBRONECTIN IC50 [3, 8] | Kd [1] |
| --- | --- | --- | --- | --- | --- | --- | --- | --- | --- |
| CC(C)N1C(=O)N(c2cc(Cl)cc(Cl)c2)C(=O)C1Cc1ccccc1 (stereo not drawn) [Example 10] | 190 nM | 50000 nM | No inh^c | 6300 nM | >500 µM | – | – | – | – |
| CN1C(=O)N(c2cc(C(F)(F)F)cc(C(F)(F)F)c2)C(=O)[C@@]1(C)Cc1ccc(Br)cc1 [Example 100] | 190 nM | 8000 to 15000 nM | – | 700 nM | >400 µM | > 60000 nM | – | – | – |
| CCCN1C(=O)N(c2cc(Cl)cc(Cl)c2)C(=O)C1(C)Cc1ccc(Br)cc1 (stereo not drawn) [Example 137] | 40 nM | 1000 to 3000 nM | No inh^c | 400 nM | 200 to 400 µM | – | – | – | – |
| CN1C(=O)N(c2cc(Cl)cc(Cl)c2)C(=O)C1(C)Cc1ccc(C(F)(F)F)cc1 (stereo not drawn) [Example 171] | 180 nM | 102000 nM | No inh^c | 200 nM | 100 to 200 µM | – | – | – | – |
| C[C@@]1(Cc2ccc(Br)cc2)C(=O)N(c2cc(Cl)cc(Cl)c2)C(=O)N1C(=O)C1CCCN1 (stereo partly drawn) [Example 234] | – | – | – | 1600 nM | 100 to 200 µM | – | 5000 to 10000 nM | No inh^c | – |
| C[C@@]1(Cc2ccc(Br)cc2)C(=O)N(c2cc(Cl)cc(Cl)c2)C(=O)N1CCCCC[N+](C)(C)C [Example 255] | – | – | – | 200 nM | 100 to 200 µM | – | 1000 nM | – | 140 nM |
| Cc1ccc(C[C@@]2(C)NC(=O)N(c3cc(Cl)cc(Cl)c3)C2=O)cc1 [Example 119] | – | < 3000 nM | No inh^c | 50 nM | >400 µM | – | – | – | – |
| C[C@@]1(Cc2ccc(Br)cc2)C(=O)N(c2cc(Cl)cc(Cl)c2)C(=O)N1CCCC[N+](C)(C)C [Example 253] | – | – | – | 200 nM | 100 to 200 µM | – | 1000 to 2000 nM | – | 50 nM |
| [2H]C([2H])([2H])N1C(=O)N(c2cc(Cl)cc(Cl)c2)C(=O)[C@@]1(C)Cc1ccc(Br)cc1 [Example 109] | – | 3000 to 6000 nM | No inh^c | 400 nM | 100 to 200 µM | – | – | – | – |
| O=C1NC(Cc2ccccc2)C(=O)N1c1cc(Cl)cc(Cl)c1 (stereo not drawn) [Example 20] | 1760 nM | 16000 nM | – | – | 125 to 250 µM | 63000 to 125000 nM | – | – | – |
| C[C@@]1(Cc2ccc(Br)cc2)C(=O)N(c2cc(Cl)cc(Cl)c2)C(=O)N1C(=O)CO [Example 231] | – | – | – | – | 40 to 80 µM | – | 2000 to 5000 nM | No inh^c | 270 nM |
| O=C1NC(Cc2ccc3ccccc3c2)C(=O)N1c1cc(Cl)cc(Cl)c1 (stereo not drawn) [Example 17] | 3010 nM | > 63000 nM | No inh^c | – | 125 µM | – | – | – | – |
| CCN1C(=O)N(c2cc(Cl)cc(Cl)c2)C(=O)C1(C)Cc1ccccc1 (stereo not drawn) [Example 89] | 290 nM | 50000 nM | No inh^c | – | 500 µM | – | – | – | – |
| CCCN1C(=O)N(c2cc(Cl)cc(Cl)c2)C(=O)C1(C)Cc1ccccc1 (stereo not drawn) [Example 90] | 730 nM | 50000 to 100000 nM | No inh^c | – | >500 µM | – | – | – | – |
| C[C@@]1(Cc2ccc(Br)cc2)C(=O)N(c2cc(Cl)cc(Cl)c2)C(=O)N1CCC[N+](C)(C)C [Example 254] | – | – | – | 400 nM | 100 to 200 µM | – | 1000 to 2000 nM | – | 80 nM |
| CN1C(=O)N(c2cc(Cl)cc(Cl)c2)C(=O)C1Cc1ccccc1 (stereo not drawn) [Example 82] | 2100 nM | 63000 to 125000 nM | – | – | 250 to 500 µM | > 250000 nM | – | – | – |
| O=C1CC(Cc2ccccc2)C(=O)N1c1cc(Cl)cc(Cl)c1 (stereo not drawn) [Example 76] | 2340 nM | 150000 to 300000 nM | – | – | >500 µM | > 300000 nM | – | – | – |
